Measurements published in patent US9890176B2, “Mannose derivatives for treating bacterial infections” (Vertex Pharmaceuticals Incorporated, priority 2013, dated 2018).

Experiments:
[1] = target: T1, carbohydrate recognition domain of the protein FimH (M1-T179) (Escherichia coli, UniProt P08191); assay: Thermal Shift Assay; assay type: binding, E. coli; settings: 5.6 μM protein, 56 μM ligand; DMSO control as reference; ± standard error of the mean (number of repeats)
T1 construct: domain of the protein FimH (M1-T179) with an uncleavable C-terminus 6-His tag; made in house; host or cells: E. coli (pET21b plasmid)
Description: The carbohydrate recognition domain of the protein FimH (M1-T179) with an uncleavable C-terminus 6-His tag is cloned in a pET21b plasmid and expressed in E. coli and purified to homogeneity. The thermal stabilization of the protein upon ligand binding is measured in a 96-well format on a ViiA™ 7 (Life Technologies, Carlsbad, Calif.) RT-PCR instrument. The assay is conducted in duplicate in 20 mM Tris pH 7.4 and 150 mM NaCl at a final concentration of 5.6 μM and 56 μM for protein and ligand, respectively. An environmentally-sensitive dye (Applied Biosystems Protein Thermal Shift™ Dye (P/N 4461141)) is added to each well to a final ratio of 1:1000. Plates are spun at 1000×g for 1 minute and incubated at room temperature for 10 minutes. Thermal stability of protein with and without ligand is measured from 45° C. to 85° C. at a scan rate of 0.05° C./sec. The resulting data is analyzed using Protein Thermal Shift™ Software (version 1.1) with DMSO control used as reference.

[2] = tested on: bacterial strain LF82 binding to the glycoprotein BSA-(Mannose)3; assay: Bacterial Binding Assay (BBA); assay type: cell-based, Escherichia coli; settings: read-out: Bacterial Binding Assay IC50
Method in brief: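 Luciferase-tagged E. coli LF82 grown overnight at 37° C without shaking, then added at 2×10^8 bacteria/mL (10^7 per well) to wells coated with 0.5-2 μg/mL BSA-(Man)3 and blocked with 2% BSA. Compound in 0.2% BSA/D-PBS; binding 40-75 min at room temperature. Washed; bound bacteria read by luciferase luminescence; IC50.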

[3] = Mouse Feces Stability Assay; assay type: in vitro ADME; settings: 100 uM in mouse feces supernatant, pH 6.5, 37° C.
Description: The mouse feces stability assay can be used to measure the stability of FimH antagonists in an environment that mimics the gut. Fresh mouse feces samples from a number of animals (at least 4) are homogenized with 10 volumes (w/v) of 100 mM potassium phosphate buffer (pH 6.5) using a Stomacher device. The feces mixture is then centrifuged 5 min at 2000 g and the supernatant is collected for incubation. Compounds to be tested are spiked at 100 uM in the feces supernatant and incubated at 37° C. up to 6 hours. The enzymatic reaction is stopped by adding 9 volumes of acetonitrile containing 0.1% formic acid and an internal standard. The mixture is centrifuged and the supernatants are analyzed by HPLC-MS/MS to assess percentage of parent remaining relative to a control sample.

[4] = Human Feces Stability Assay; assay type: in vitro ADME; settings: 100 uM in human feces supernatant (3 donors), pH 6.5, 37° C.
Description: The human feces stability assay ca be used to measure the stability of FimH antagonists in an environment that mimics the gut. Fresh human feces samples from 3 donors are homogenized with 10 volumes (w/v) of 100 mM potassium phosphate buffer (pH 6.5) using a Stomacher device. The feces mixture is then centrifuged 5 min at 2000 g and supernatant is collected for incubations. Compounds to be tested are spiked at 100 uM in feces supernatant and incubated at 37° C. up to 24 hours. The enzymatic reaction is stopped by adding 9 volumes of acetonitrile containing 0.1% formic acid and internal standard. The mixture is centrifuged and the supernatants are analysed by HPLC-MS/MS to assess percentage of parent remaining relative to a control sample.

[5] = Mouse Excretion Study Following FimH Antagonist Oral Dosing; assay type: in vivo; settings: 10 mg/kg orally, collection up to 72 h
Description: Mice are dosed 10 mg/kg orally (10 mL/kg; 0.5% methocel) with FimH antagonists and urine and feces are collected on ice up to 72 h in excretion cages. Post-collection, feces samples are diluted with 10 volumes of water and homogenized using a Stomacher device. Feces mixture and urine samples are then quenched with acetonitrile containing an internal standard, centrifuged, and the supernatants are then diluted with 1 volume of water prior to analysis by HPLC-MS/MS in SRM mode.

T1 sequence (P08191 22-179 limits assumed): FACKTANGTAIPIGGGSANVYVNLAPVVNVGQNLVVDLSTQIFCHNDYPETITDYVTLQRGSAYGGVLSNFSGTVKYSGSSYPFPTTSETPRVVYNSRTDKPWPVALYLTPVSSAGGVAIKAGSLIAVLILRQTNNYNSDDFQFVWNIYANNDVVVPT

## CNC(=O)c1cccc(-c2ccc(O[C@H]3O[C@H](CO)[C@@H](O)[C@H](O)[C@@H]3F)c(C(F)(F)F)c2)c1 [Example 4, 3-[4-[(2R,3S,4S,5S,6R)-3-fluoro-4,5-dihydroxy-6-(hydroxymethyl)tetrahydropyran-2-yl]oxy-3-(trifluoromethyl)phenyl]-N-methyl-benzamide]
[1]
  Delta Thermal melt: 5.6 (1) ° C.
[2]
  IC50: 470 ± 32 nM
[3]
  In vitro mice feces stability - % Parent remaining at 6 h: 108%

## CNC(=O)c1cccc(-c2ccc(O[C@H]3O[C@H](CO)[C@@H](O)[C@H](O)[C@@H]3O)c(C)c2)c1 [A]
[3]
  In vitro mice feces stability - % Parent remaining at 6 h: 0%
[4]
  In vitro human feces stability - % Parent remaining at 24 h: 35%
[5]
  % Oral dose recovered intact in mice feces: 8.4%
  % Oral dose recovered intact in mice urine: 0.20%

## CNC(=O)c1cccc(-c2ccc(O[C@H]3O[C@H](CF)[C@@H](O)[C@H](O)[C@@H]3O)cc2)c1 [Example 12, 4′-(((2R,3S,4S,5S,6S)-6-(fluoromethyl)-3,4,5-trihydroxytetrahydro-2H-pyran-2-yl)oxy)-N-methyl-[1,1′-biphenyl]-3-carboxamide]
[1]
  Delta Thermal melt: 0.06 ± 0.11 (2) ° C.
[3]
  In vitro mice feces stability - % Parent remaining at 6 h: 118%

## CNC(=O)c1cccc(-c2ccc(O[C@H]3O[C@H](CO)[C@@H](O)[C@H](O)[C@@H]3F)c(C)c2)c1 [Example 6, 3-[4-[(2R,3S,4S,5S,6R)-3-fluoro-4,5-dihydroxy-6-(hydroxymethyl)tetrahydropyran-2-yl]oxy-3-methyl-phenyl]-N-methyl-benzamide]
[1]
  Delta Thermal melt: 4.905 ± 0.195 (2) ° C.
[2]
  IC50: 750 ± 141 nM
[3]
  In vitro mice feces stability - % Parent remaining at 6 h: 108%

## CNC(=O)c1cccc(-c2ccc(O[C@H]3O[C@H](CO)[C@@H](O)[C@H](F)[C@@H]3O)cc2)c1 [Example 11, 4′-(((2R,3R,4S,5R,6R)-4-fluoro-3,5-dihydroxy-6-(hydroxymethyl)tetrahydro-2H-pyran-2-yl)oxy)-N-methyl-[1,1′-biphenyl]-3-carboxamide]
[1]
  Delta Thermal melt: 2.6 (1) ° C.
[2]
  IC50: 14000 nM

## CNC(=O)c1cccc(-c2ccc(O[C@H]3O[C@H](CO)[C@@H](O)[C@H](O)[C@]3(C)O)c(C)c2)c1 [Example 13, N,3′-dimethyl-4′-(((2R,3S,4S,5S,6R)-3,4,5-trihydroxy-6-(hydroxymethyl)-3-methyltetrahydro-2H-pyran-2-yl)oxy)-[1,1′-biphenyl]-3-carboxamide]
[1]
  Delta Thermal melt: 10.71 ± 0 (2) ° C.
[2]
  IC50: 15 ± 2 nM
